Laboratory results as given in US9937198B2, “Multi-functional composition and preparation method and application thereof” (Suzhou Sciscape Bio-Pharmaceutical Technology Co., Ltd., priority 2013, dated 2018).

Assays:
normal mice = test: Sleep in normal mice with subdissociative sodium pentobarbital; type: in vivo; conditions: 13.3 mL/kg intragastric; sodium pentobarbital 15 mg/kg i.p. 20 to 30 min later
Description: Male ICR mice, 8 weeks old and 20±2 g in body weight, were purchased from Beijing HFK Bioscience Co., Ltd.
The solutions of Compositions 1 to 7 prepared in this example were used.
After the mice were fed normally for 3 days, they were given no food but water for 18 to 24 h. By body weight, the mice were randomly divided into 11 groups, i.e., a blank control group, administration groups 1 to 7 and negative control groups 1 to 3. The mice in administration groups 1 to 7 were intragastrically administered with the solutions of Compositions 1 to 7 at a dose of 13.3 mL/kg body weight while the mice in the blank control group were intragastrically given sterile water for medical use at a dose of 13.3 mL/kg body weight. The mice in negative control groups 1 to 3 were intragastrically given the solution of trehalose (0.15 g/mL), the solution of validamycin (0.3 mg/mL) and the solution of algal polysaccharides (0.15 g/mL) at a dose of 13.3 mL/kg body weight respectively. Twenty to 30 min post administration, all mice were intraperitoneally injected with sodium pentobarbital at a subdissociative dose (15 mg/kg). The time when the righting reflex disappeared and sleep duration of the mice were recorded.

[1] = tested on: patients with type-II diabetes; test: Long-term experiment for treatment in human diabetics; type: in vivo; conditions: for Blood glucose level after administration: 200 mL oral
Description: Six patients with type-II diabetes were fasted overnight and then measured for fasting blood glucose level. Then they were orally administered with 200 mL of the solution of Composition 1, or 200 mL of solution of trehalose (0.15 g/mL), or 200 mL of the solution of validamycin (0.3 mg/mL), or 200 mL of distilled water, as stated in Table 3.4. The blood glucose level in every patient was tested before administration and one day, one week, two weeks and one month post administration.

## OC[C@H]1O[C@H](O[C@H]2O[C@H](CO)[C@@H](O)[C@H](O)[C@H]2O)[C@H](O)[C@@H](O)[C@@H]1O [trehalose]
Normal mice
  Sleep duration: 30.54 ± 2.17 min
  Time when righting reflex disappeared: 2.49 ± 0.14 min

## OCC1=C[C@H](N[C@H]2C[C@H](CO)[C@@H](O[C@@H]3O[C@H](CO)[C@@H](O)[C@H](O)[C@H]3O)[C@H](O)[C@H]2O)[C@H](O)[C@@H](O)[C@@H]1O [validamycin]
Normal mice
  Sleep duration: 29.87 ± 1.58 min
  Time when righting reflex disappeared: 3.11 ± 0.21 min
[1]; 1 month, individual type-II diabetics
  Blood glucose level after administration: 8.9 mmol/L
[1]; 1 week, individual type-II diabetics
  Blood glucose level after administration: 9.0 mmol/L
[1]; 2 weeks, individual type-II diabetics
  Blood glucose level after administration: 8.7 mmol/L
[1]; 1 day, individual type-II diabetics
  Blood glucose level after administration: 8.7 mmol/L
[1]; fasting baseline, individual type-II diabetics, long-term
  Blood glucose level before administration: 8.8 mmol/L
[1]; up to one month
  effect on blood glucose level in patients with type-II diabetes, long-term: had no influence on blood glucose level
